Experimental data: patent US10315146B2, “Filter medium for deactivating allergens” (Carl Freudenberg KG, priority 2015, dated 2019)

Assays:
[1] = test system: Antigen Bet v1 from pollen; assay: ELISA test of allergen-deactivating efficiency of the filter medium (birch pollen antigen); type: biochemical; settings: summary of Table 1; acid on filter medium in dry state
Protocol: A carrier non-woven fabric of polyester spunbonded non-woven (weight per unit area 125 g/m^2) is finished in an allergen-deactivating manner with a mixture of lauric acid and citric acid. The allergen-deactivating doping of the carrier non-woven is carried out by applying a mixture of the active ingredients in aqueous solution to the carrier non-woven and subsequently drying the now finished non-woven fabric to thereby obtain a sample for analysis.
The size of the sample used in the test is 10 mm×10 mm.
Allergen sources used and antigens to be tested: • a) Allergen house dust mite: Antigen Der p1 from excrement • b) Allergen birch pollen: Antigen Bet v1 from pollen
Allergen sources from Allergon AB, Ängelholm, Sweden were used. […]

[2] = biological target: T1, Antigen Der p1 from excrement (Dermatophagoides pteronyssinus, UniProt P08176); assay: ELISA test of allergen-deactivating efficiency of the filter medium (house dust mite antigen); type: biochemical; settings: text summary of Table 4; compared with the acids used according to the invention
T1 construct: tissue Allergon AB, Ängelholm, Sweden; host or cells: house dust mite excrement
T1 sequence (P08176 99-320): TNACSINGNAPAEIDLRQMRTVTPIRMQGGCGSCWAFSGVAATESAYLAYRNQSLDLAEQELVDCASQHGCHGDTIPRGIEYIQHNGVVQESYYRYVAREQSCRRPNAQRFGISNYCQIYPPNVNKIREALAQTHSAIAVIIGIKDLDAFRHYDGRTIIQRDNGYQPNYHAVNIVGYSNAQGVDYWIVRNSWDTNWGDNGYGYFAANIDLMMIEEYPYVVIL
Text: In the examples, ELISA (enzyme-linked immunosorbent assay) is used as a method for measuring the deactivation abilities of different active ingredient compositions in respect of particular allergens.
The ELISA method can measure allergen concentrations by assessing color changes due to antigen-antibody reactions.
A carrier non-woven fabric of polyester spunbonded non-woven (weight per unit area 125 g/m^2) is finished in an allergen-deactivating manner with a mixture of lauric acid and citric acid. […]
The absorption of the microplate is established according to the specifications of the ELISA kit manufacturer using a microplate reading device at a wavelength of 405 nm and thus the allergen concentration (antigen content) of each sample is determined.
To determine the allergen-deactivating efficiency, each antigen concentration of the sample reaction solution is determined according to the specifications of the ELISA kit manufacturer using a microplate reading device at a wavelength of 405 nm.
Here, the starting concentration and the measured allergen concentration of the sample correspond to an antigen-specific concentration in ng/ml. […]

Row | Structure (SMILES) | allergen-eliminating effect [1] | immunological effect [2]
1 | O=C(O)CC(O)(CC(=O)O)C(=O)O [citric acid] | high allergen-eliminating effect | 
2 | O=C(O)CC(O)C(=O)O (stereo not drawn) [malic acid] | high allergen-eliminating effect | 
3 | O=C([O-])[O-].[K+].[K+] [potassium carbonate] |  | significantly lower than that of the acids used according to the invention
